Series [1] concerns the target Neuronal acetylcholine receptor subunit alpha-7 (Homo sapiens, UniProt P36544). As to the kind of experiment: Binding affinity to alpha7 nAChR (unknown origin) assessed as dissociation constant.
For series [2], the target named is Neuronal acetylcholine receptor; alpha4/beta2 (Homo sapiens, UniProt P17787+P43681). As to the kind of experiment: Binding affinity to alpha4beta2 nAChR (unknown origin) assessed as dissociation constant. Format: protein-complex assay.
Series [3] has as its target Neuronal acetylcholine receptor; alpha3/beta4 (Homo sapiens, UniProt P30926+P32297). As to the kind of experiment: Binding affinity to alpha3beta4 nAChR (unknown origin) assessed as dissociation constant. Format: protein-complex assay.
Series [4] concerns Cavia porcellus. Put plainly: Anti-tussive activity in guniea pig cough model assessed as reduction in cumulative number of coughs at 30 mg/kg, ip. The format is functional, organism-based.
Series [5] has as its system Cavia porcellus. Put plainly: Anti-tussive activity in guniea pig cough model assessed as suppression of cough frequency at 1 to 9.5 mg/kg, ip. The conditions noted are these: dose 1-9.5 mg/kg. The format is functional, organism-based.
Series [6] has as its system Cavia porcellus. As to the kind of experiment: Anti-tussive activity in guniea pig cough model assessed as reduction in cumulative number of coughs at 1 to 9.5 mg/kg, ip. Conditions: dose 1-9.5 mg/kg. The format is functional, organism-based.
Series [7] deals with Cavia porcellus. As to the kind of experiment: Anti-tussive activity in guniea pig cough model assessed as reduction in cumulative number of coughs at 0.4 mg/kg, INH. Format: functional, organism-based.
Series [8] has as its system Cavia porcellus. Put plainly: Anti-tussive activity in guniea pig cough model assessed as reduction in cumulative number of coughs at 1 to 2 mg/kg, IT. Format: functional, organism-based. Conditions: dose 1-2 mg/kg.
Series [9] concerns Cavia porcellus. Put plainly: Anti-tussive activity in guniea pig cough model assessed as reduction in cumulative number of coughs at 9.5 mg/kg, po. Format: functional, organism-based.
Series [10] concerns Cavia porcellus. Put plainly: Anti-tussive activity in guniea pig cough model assessed as reduction in cough inhibition period at 1 to 9.5 mg/kg, ip. Conditions: dose 1-9.5 mg/kg. The format is functional, organism-based.
Series [11] relates to Cavia porcellus. Put plainly: Anti-tussive activity in guniea pig cough model assessed as reduction in cough inhibition period at 0.1 to 0.4 mg/kg, INH. Format: functional, organism-based. The conditions noted are these: dose 0.1-0.4 mg/kg.
A short description of series [12]: Half life in po dosed guinea pig. Conditions: in vivo. Format: ADME, organism-based, Cavia porcellus.
The nature of series [13]: Half life in ip dosed guinea pig. The format is ADME, organism-based, Cavia porcellus. The conditions noted are these: in vivo.
A short description of series [14]: Half life in INSULFFLATION dosed guinea pig. The format is ADME, organism-based, Cavia porcellus. Conditions: in vivo, inhaled or intranasal.
Series [15] deals with Cavia porcellus. As to the kind of experiment: Anti-tussive activity in citric acid-induced guniea pig cough model assessed as reduction in cough count at 30 mg/kg, ip. Format: functional, organism-based.
Series [16] concerns Cavia porcellus. As to the kind of experiment: Anti-tussive activity in guniea pig cough model assessed as suppression of cough frequency at 3 to 30 mg/kg, ip. The conditions noted are these: dose 3-30 mg/kg. Format: functional, organism-based.
Series [17] deals with Cavia porcellus. Put plainly: Anti-tussive activity in guniea pig cough model assessed as reduction in cumulative number of coughs at 3 to 30 mg/kg, ip. Format: functional, organism-based. Conditions: dose 3-30 mg/kg.

Calls of active or inactive are those of the source. The rule behind the calls is not given here.

Sequence of Neuronal acetylcholine receptor; alpha3/beta4 (P30926 whole entry): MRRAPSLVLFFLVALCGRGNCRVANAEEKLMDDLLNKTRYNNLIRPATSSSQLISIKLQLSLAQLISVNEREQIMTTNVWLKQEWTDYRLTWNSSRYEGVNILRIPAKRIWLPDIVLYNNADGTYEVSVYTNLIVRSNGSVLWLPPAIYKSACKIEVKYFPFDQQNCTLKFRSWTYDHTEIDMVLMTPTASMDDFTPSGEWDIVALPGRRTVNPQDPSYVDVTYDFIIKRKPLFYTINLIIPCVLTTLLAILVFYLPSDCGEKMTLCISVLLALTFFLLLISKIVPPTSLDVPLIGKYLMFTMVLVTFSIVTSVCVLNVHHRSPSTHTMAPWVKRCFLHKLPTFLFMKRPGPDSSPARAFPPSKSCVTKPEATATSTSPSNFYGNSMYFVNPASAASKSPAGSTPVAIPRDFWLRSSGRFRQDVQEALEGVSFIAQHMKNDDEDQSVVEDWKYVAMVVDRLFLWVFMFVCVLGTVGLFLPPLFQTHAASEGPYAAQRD
Sequence of Neuronal acetylcholine receptor; alpha3/beta4 (P32297 whole entry): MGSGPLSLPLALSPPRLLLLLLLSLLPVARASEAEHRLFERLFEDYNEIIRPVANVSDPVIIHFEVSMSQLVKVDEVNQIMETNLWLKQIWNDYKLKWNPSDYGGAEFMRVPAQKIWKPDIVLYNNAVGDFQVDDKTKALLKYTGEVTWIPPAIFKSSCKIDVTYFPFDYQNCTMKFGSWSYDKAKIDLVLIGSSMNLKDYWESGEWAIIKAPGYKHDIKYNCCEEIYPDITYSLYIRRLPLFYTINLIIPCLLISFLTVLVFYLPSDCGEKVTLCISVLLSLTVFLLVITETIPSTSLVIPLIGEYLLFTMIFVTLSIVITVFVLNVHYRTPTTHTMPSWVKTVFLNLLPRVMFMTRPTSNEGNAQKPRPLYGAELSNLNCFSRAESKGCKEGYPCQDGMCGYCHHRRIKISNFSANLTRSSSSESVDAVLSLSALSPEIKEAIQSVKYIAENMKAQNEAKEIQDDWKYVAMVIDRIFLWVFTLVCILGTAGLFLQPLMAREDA
Sequence of Neuronal acetylcholine receptor; alpha4/beta2 (P17787 whole entry): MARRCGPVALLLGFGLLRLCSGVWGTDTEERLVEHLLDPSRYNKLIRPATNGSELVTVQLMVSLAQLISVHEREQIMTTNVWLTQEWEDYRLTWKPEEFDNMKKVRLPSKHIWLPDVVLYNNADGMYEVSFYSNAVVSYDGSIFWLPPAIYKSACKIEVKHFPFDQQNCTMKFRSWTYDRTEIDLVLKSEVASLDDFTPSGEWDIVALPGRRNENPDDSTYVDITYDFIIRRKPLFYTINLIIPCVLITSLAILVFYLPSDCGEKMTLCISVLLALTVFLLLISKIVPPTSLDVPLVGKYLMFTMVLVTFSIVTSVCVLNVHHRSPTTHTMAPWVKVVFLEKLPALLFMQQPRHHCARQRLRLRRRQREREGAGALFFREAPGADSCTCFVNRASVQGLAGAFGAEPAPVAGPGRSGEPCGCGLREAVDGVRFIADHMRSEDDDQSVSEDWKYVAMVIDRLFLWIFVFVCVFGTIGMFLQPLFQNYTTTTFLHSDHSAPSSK
Sequence of Neuronal acetylcholine receptor; alpha4/beta2 (P43681 whole entry): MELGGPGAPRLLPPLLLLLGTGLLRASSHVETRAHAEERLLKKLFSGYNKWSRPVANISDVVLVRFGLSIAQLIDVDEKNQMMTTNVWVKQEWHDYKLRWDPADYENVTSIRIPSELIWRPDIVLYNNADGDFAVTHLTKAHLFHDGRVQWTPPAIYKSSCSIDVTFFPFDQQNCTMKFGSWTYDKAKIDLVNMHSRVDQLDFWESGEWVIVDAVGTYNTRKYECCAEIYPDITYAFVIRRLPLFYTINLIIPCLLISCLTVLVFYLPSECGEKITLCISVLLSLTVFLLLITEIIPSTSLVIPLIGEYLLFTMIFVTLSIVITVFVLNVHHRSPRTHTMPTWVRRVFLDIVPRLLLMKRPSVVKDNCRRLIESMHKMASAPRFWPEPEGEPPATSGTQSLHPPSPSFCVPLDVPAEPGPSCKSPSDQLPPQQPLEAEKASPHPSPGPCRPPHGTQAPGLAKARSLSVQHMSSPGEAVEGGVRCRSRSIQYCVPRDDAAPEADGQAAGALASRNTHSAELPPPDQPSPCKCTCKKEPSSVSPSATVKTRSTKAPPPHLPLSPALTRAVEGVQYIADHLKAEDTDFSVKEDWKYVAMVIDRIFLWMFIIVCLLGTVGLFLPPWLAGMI
Sequence of Neuronal acetylcholine receptor subunit alpha-7 (P36544 whole entry): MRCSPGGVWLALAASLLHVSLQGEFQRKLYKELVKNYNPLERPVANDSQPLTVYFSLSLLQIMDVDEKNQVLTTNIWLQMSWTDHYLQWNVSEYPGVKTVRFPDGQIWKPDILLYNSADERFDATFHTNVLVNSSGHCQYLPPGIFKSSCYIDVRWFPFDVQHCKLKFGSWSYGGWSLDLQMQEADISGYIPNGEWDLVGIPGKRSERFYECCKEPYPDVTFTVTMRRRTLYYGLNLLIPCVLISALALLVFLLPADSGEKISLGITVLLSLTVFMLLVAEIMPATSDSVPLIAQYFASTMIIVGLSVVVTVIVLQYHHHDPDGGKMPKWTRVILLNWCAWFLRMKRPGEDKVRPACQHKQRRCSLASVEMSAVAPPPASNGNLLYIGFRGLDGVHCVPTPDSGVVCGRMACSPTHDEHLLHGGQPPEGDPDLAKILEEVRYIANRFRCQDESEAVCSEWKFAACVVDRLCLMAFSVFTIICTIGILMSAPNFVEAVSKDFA

In the case of `c1cncc(C[C@H]2[C@H](Oc3ccc(-c4ccc5[nH]ccc5c4)cn3)C3CCN2CC3)c1`, the results for the Ki in series [1], in series [2] and in series [3] were 58 nM, 470 nM and 780 nM, respectively.

As for `COc1ccc2c3c1O[C@H]1[C@@H](O)C=C[C@H]4[C@@H](C2)N(C)CC[C@@]341`, in the series with Cavia porcellus [4], the outcome was Active.

With `c1cncc(C[C@@H]2[C@@H](Oc3nnc(-c4ccc5[nH]ccc5c4)s3)C3CCN2CC3)c1` (relative stereo), the Ki is 220 nM in series [2] and 440 nM in series [3]. Besides, the outcome in the series on Cavia porcellus [5], with Cavia porcellus [6], in the series with Cavia porcellus [7], with Cavia porcellus [8], with Cavia porcellus [10] and with Cavia porcellus [11] was Active. Further, the outcome in the series with Cavia porcellus [9] was inactive. The half-life in series [12] was 90 min; in series [13] it was 102 min; in [14], 192 min.

`c1cncc(C[C@@H]2[C@@H](Oc3ccc4ccccc4n3)C3CCN2CC3)c1` (relative stereo): the figures for the inhibitory constant (Ki) in [2] and in series [3] were 140 nM and 800 nM, respectively.

For the molecule `c1cncc(C[C@@H]2[C@H](Oc3ccc(-c4ccc5[nH]ccc5c4)nn3)C3CCN2CC3)c1` (relative stereo), the Ki in series [2] is 17.3 nM; in series [3] it was 200 nM.

On to `c1cncc(C[C@H]2[C@H](Oc3cnc(-c4ccc5[nH]ccc5c4)cn3)C3CCN2CC3)c1` (relative stereo), for which the Ki in series [1] was 240 nM; in [2], 230 nM; in [3], 400 nM.

As for `c1cncc(C[C@H]2[C@H](Oc3ccc(-c4ccc5[nH]ccc5c4)nn3)C3CCN2CC3)c1` (relative stereo), the Ki in series [1] turned out to be 1.4 nM; in series [2], 73 nM; in series [3], 730 nM. The outcome in the series on Cavia porcellus [15] was Active.

With `c1ccc(-c2ccc(O[C@@H]3C4CCN(CC4)[C@H]3Cc3cccnc3)nn2)cc1` (relative stereo), the results for the Ki in series [1], in series [2] and in series [3] were 100 nM, 120 nM and 80 nM, respectively.

Turning to `Nc1nc2ccc(-c3ccc(O[C@H]4C5CCN(CC5)[C@@H]4Cc4cccnc4)nn3)cc2s1` (relative stereo), the values for the Ki in [1], in series [2] and in [3] were 18.8 nM, 50 nM and 1080 nM, respectively.

On to `c1cncc(C[C@@H]2[C@@H](Oc3ccc(-c4ccc[nH]4)nn3)C3CCN2CC3)c1` (relative stereo), for which the Ki in series [1] amounted to 42 nM; in series [2], 200 nM; in series [3], 730 nM. Further, in the series with Cavia porcellus [16], the result was Active. The result in the series with Cavia porcellus [17] was inactive.

`c1cncc(C[C@@H]2[C@@H](Oc3cc4ccccc4cn3)C3CCN2CC3)c1` (relative stereo): the Ki came to 1000 nM in series [1], 1870 nM in series [2] and 2150 nM in [3].

Regarding `c1ccc(-c2nnc(O[C@H]3C4CCN(CC4)[C@@H]3Cc3cccnc3)s2)cc1` (relative stereo), the Ki in [2] was 330 nM; in [3] it was 340 nM.

The record behind these values is ChEMBL document CHEMBL5236594, “Novel α7 nicotinic acetylcholine receptor modulators as potential antitussive agents” (Bioorg Med Chem Lett, 2023).
